assay: (§1) The drug is tested on Z-030 corresponding to mouse gut metagenome with ENA study accession number: PRJEB37062 and ENA sample accession number: ERS12561829 for biotransformation under anaerobic condition. The drug concentrations were measured over 9 timepoints collected between 0 and 24 hours of incubation by liquid-chromatography-coupled mass spectrometry (LC–MS); conditions: 2 µM
Further: call rule not given here.

Bacterial Biotransformation | Structure (SMILES)
Compound NOT metabolized | CS(=O)(=O)O.OC(CCN1CCCCC1)(c1ccccc1)c1ccccc1 [PRIDINOL METHANESULFONATE]
Compound NOT metabolized | CC(CN1c2ccccc2Sc2ccccc21)N(C)C (stereo not given) [PROMETHAZINE]

assay: as §1, with “Z-028” for “Z-030”, “ERS12561827” for “ERS12561829”; conditions: 2 µM

Bacterial Biotransformation | Structure (SMILES)
Compound NOT metabolized | CS(=O)(=O)O.OC(CCN1CCCCC1)(c1ccccc1)c1ccccc1 [PRIDINOL METHANESULFONATE]
Compound NOT metabolized | CC(CN1c2ccccc2Sc2ccccc21)N(C)C (stereo not given) [PROMETHAZINE]

assay: as §1, with “Z-027” for “Z-030”, “to” for “to mouse gut”, “ERS12561826” for “ERS12561829”; conditions: 2 µM

Bacterial Biotransformation | Structure (SMILES)
Compound NOT metabolized | CS(=O)(=O)O.OC(CCN1CCCCC1)(c1ccccc1)c1ccccc1 [PRIDINOL METHANESULFONATE]
Compound NOT metabolized | CC(CN1c2ccccc2Sc2ccccc21)N(C)C (stereo not given) [PROMETHAZINE]

assay: as §1, with “Z-026” for “Z-030”, “to” for “to mouse gut”, “ERS12561825” for “ERS12561829”; conditions: 2 µM

Bacterial Biotransformation | Structure (SMILES)
Compound NOT metabolized | CS(=O)(=O)O.OC(CCN1CCCCC1)(c1ccccc1)c1ccccc1 [PRIDINOL METHANESULFONATE]
Compound NOT metabolized | CC(CN1c2ccccc2Sc2ccccc21)N(C)C (stereo not given) [PROMETHAZINE]

assay: as §1, with “Z-024” for “Z-030”, “pig” for “mouse”, “ERS12561823” for “ERS12561829”; conditions: 2 µM

Bacterial Biotransformation | Structure (SMILES)
Compound NOT metabolized | CS(=O)(=O)O.OC(CCN1CCCCC1)(c1ccccc1)c1ccccc1 [PRIDINOL METHANESULFONATE]
Compound metabolized | CC(CN1c2ccccc2Sc2ccccc21)N(C)C (stereo not given) [PROMETHAZINE]

assay: as §1, with “Z-020” for “Z-030”, “rabbit” for “mouse”, “ERS12561819” for “ERS12561829”; conditions: 2 µM

Bacterial Biotransformation | Structure (SMILES)
Compound NOT metabolized | CS(=O)(=O)O.OC(CCN1CCCCC1)(c1ccccc1)c1ccccc1 [PRIDINOL METHANESULFONATE]
Compound NOT metabolized | CC(CN1c2ccccc2Sc2ccccc21)N(C)C (stereo not given) [PROMETHAZINE]

assay: as §1, with “Z-010” for “Z-030”, “to” for “to mouse gut”, “ERS12561810” for “ERS12561829”; conditions: 2 µM

Bacterial Biotransformation | Structure (SMILES)
Compound NOT metabolized | CS(=O)(=O)O.OC(CCN1CCCCC1)(c1ccccc1)c1ccccc1 [PRIDINOL METHANESULFONATE]
Compound metabolized | CC(CN1c2ccccc2Sc2ccccc21)N(C)C (stereo not given) [PROMETHAZINE]

assay: as §1, with “Z-004” for “Z-030”, “to” for “to mouse gut”, “ERS12561804” for “ERS12561829”; conditions: 2 µM

Bacterial Biotransformation | Structure (SMILES)
Compound NOT metabolized | CS(=O)(=O)O.OC(CCN1CCCCC1)(c1ccccc1)c1ccccc1 [PRIDINOL METHANESULFONATE]
Compound NOT metabolized | CC(CN1c2ccccc2Sc2ccccc21)N(C)C (stereo not given) [PROMETHAZINE]

assay: as §1, with “Z-002” for “Z-030”, “rabbit” for “mouse”, “ERS12561802” for “ERS12561829”; conditions: 2 µM

Bacterial Biotransformation | Structure (SMILES)
Compound metabolized | CS(=O)(=O)O.OC(CCN1CCCCC1)(c1ccccc1)c1ccccc1 [PRIDINOL METHANESULFONATE]
Compound NOT metabolized | CC(CN1c2ccccc2Sc2ccccc21)N(C)C (stereo not given) [PROMETHAZINE]

assay: as §1, with “Z-001” for “Z-030”, “ERS12561801” for “ERS12561829”; conditions: 2 µM

Bacterial Biotransformation | Structure (SMILES)
Compound NOT metabolized | CS(=O)(=O)O.OC(CCN1CCCCC1)(c1ccccc1)c1ccccc1 [PRIDINOL METHANESULFONATE]
Compound NOT metabolized | CC(CN1c2ccccc2Sc2ccccc21)N(C)C (stereo not given) [PROMETHAZINE]

assay: as §1, with “WLS-370” for “Z-030”, “human” for “mouse”, “ERS12561793” for “ERS12561829”; conditions: 2 µM

Bacterial Biotransformation | Structure (SMILES)
Compound NOT metabolized | CS(=O)(=O)O.OC(CCN1CCCCC1)(c1ccccc1)c1ccccc1 [PRIDINOL METHANESULFONATE]
Compound NOT metabolized | CC(CN1c2ccccc2Sc2ccccc21)N(C)C (stereo not given) [PROMETHAZINE]

assay: as §1, with “WLS-170” for “Z-030”, “human” for “mouse”, “ERS12561762” for “ERS12561829”; conditions: 2 µM

Bacterial Biotransformation | Structure (SMILES)
Compound metabolized | CS(=O)(=O)O.OC(CCN1CCCCC1)(c1ccccc1)c1ccccc1 [PRIDINOL METHANESULFONATE]
Compound metabolized | CC(CN1c2ccccc2Sc2ccccc21)N(C)C (stereo not given) [PROMETHAZINE]

assay: as §1, with “WLS-090” for “Z-030”, “human” for “mouse”, “ERS12561753” for “ERS12561829”; conditions: 2 µM

Bacterial Biotransformation | Structure (SMILES)
Compound metabolized | CS(=O)(=O)O.OC(CCN1CCCCC1)(c1ccccc1)c1ccccc1 [PRIDINOL METHANESULFONATE]
Compound metabolized | CC(CN1c2ccccc2Sc2ccccc21)N(C)C (stereo not given) [PROMETHAZINE]

conditions: human gut metagenome, 24 h, 2 µM

Bacterial Biotransformation | Structure (SMILES)
Compound NOT metabolized | CS(=O)(=O)O.OC(CCN1CCCCC1)(c1ccccc1)c1ccccc1 [PRIDINOL METHANESULFONATE]
Compound NOT metabolized | CC(CN1c2ccccc2Sc2ccccc21)N(C)C (stereo not given) [PROMETHAZINE]

conditions: human gut metagenome, 24 h, 2 µM; remark: another data set of the same source

Bacterial Biotransformation | Structure (SMILES)
Compound metabolized | CS(=O)(=O)O.OC(CCN1CCCCC1)(c1ccccc1)c1ccccc1 [PRIDINOL METHANESULFONATE]
Compound metabolized | CC(CN1c2ccccc2Sc2ccccc21)N(C)C (stereo not given) [PROMETHAZINE]

conditions: human gut metagenome, 24 h, 2 µM; remark: another data set of the same source

Bacterial Biotransformation | Structure (SMILES)
Compound NOT metabolized | CS(=O)(=O)O.OC(CCN1CCCCC1)(c1ccccc1)c1ccccc1 [PRIDINOL METHANESULFONATE]
Compound NOT metabolized | CC(CN1c2ccccc2Sc2ccccc21)N(C)C (stereo not given) [PROMETHAZINE]

conditions: human gut metagenome, 24 h, 2 µM; remark: another data set of the same source

Bacterial Biotransformation | Structure (SMILES)
Compound NOT metabolized | CS(=O)(=O)O.OC(CCN1CCCCC1)(c1ccccc1)c1ccccc1 [PRIDINOL METHANESULFONATE]
Compound metabolized | CC(CN1c2ccccc2Sc2ccccc21)N(C)C (stereo not given) [PROMETHAZINE]

conditions: human gut metagenome, 24 h, 2 µM; remark: another data set of the same source

Bacterial Biotransformation | Structure (SMILES)
Compound NOT metabolized | CS(=O)(=O)O.OC(CCN1CCCCC1)(c1ccccc1)c1ccccc1 [PRIDINOL METHANESULFONATE]
Compound NOT metabolized | CC(CN1c2ccccc2Sc2ccccc21)N(C)C (stereo not given) [PROMETHAZINE]

conditions: human gut metagenome, 24 h, 2 µM; remark: another data set of the same source

Bacterial Biotransformation | Structure (SMILES)
Compound metabolized | CS(=O)(=O)O.OC(CCN1CCCCC1)(c1ccccc1)c1ccccc1 [PRIDINOL METHANESULFONATE]
Compound metabolized | CC(CN1c2ccccc2Sc2ccccc21)N(C)C (stereo not given) [PROMETHAZINE]

conditions: human gut metagenome, 24 h, 2 µM; remark: another data set of the same source

Bacterial Biotransformation | Structure (SMILES)
Compound metabolized | CS(=O)(=O)O.OC(CCN1CCCCC1)(c1ccccc1)c1ccccc1 [PRIDINOL METHANESULFONATE]
Compound NOT metabolized | CC(CN1c2ccccc2Sc2ccccc21)N(C)C (stereo not given) [PROMETHAZINE]
